Assay results reported in PubChem BioAssay AID1845200 (Molecular Pharmacology Branch, DTP, NCI, 2023).
Values joined by “and” are separate entries in the source; they are usually repeats but may differ in a detail not shown here. Identical values can stand only once. Active and inactive are the calls of the source. Rule for the calls: active = viability on the fitted dose curve at most 10% of control; inactive = the rest.

Tested on: ASPS-1 complex tumor spheroids, viability
Assay: Anticancer human tumor ASPS-1 cell line growth inhibition;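 note: spheroids exposed to agents for 7 days after 3 days of growth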;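 for viability, T/C: 100% = DMSO vehicle treated spheroids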
Settings: for viability, T/C: stronger effect = lower value
From the text: Multicellular complex tumor spheroid response to DNA repair inhibitors in combination with DNA-damaging drugs
This study explores the anticancer activities of DNA-damaging drugs and inhibitors of DNA damage repair, both as single agents and in combinations. Complex tumor spheroids comprised of malignant cells, endothelial cells and mesenchymal stem cells served as an in vitro model for human solid tumors. This model system incorporates physiologically relevant features and patient-derived or established malignant cell lines with clinically relevant genetic alterations from many tumor types. Twenty-six patient-derived or established malignant cell lines were evaluated representing sarcoma, melanoma, small cell lung cancer (SCLC), non-small cell lung cancer (NSCLC), as well as bladder, ovarian and pancreatic cancers. The concentration ranges selected for each drug and investigational agent were based upon clinically achievable concentrations if the clinical Cmax of the agent was known.
Compounds. The drugs and compounds olaparib (NSC753686), talazoparib (NSC767125), berzosertib (NSC777718), elimusertib (NSC800525), nedisertib (NSC802822), VX-984 (NSC792969), AZD-1390 (NSC803789), temozolomide (NSC362856), topotecan (NSC609699), trabectedin (NSC813783), staurosporine (NSC755774), and gemcitabine (NSC613327) were obtained from the National Cancer Institute (NCI) Developmental Therapeutics Program Chemical Repository. The FDA-approved anticancer drug set is available from the Developmental Therapeutics Program at https://dtp.cancer.gov/organization/dscb/obtaining/available_plates.htm. […] The stock solutions were prepared in dimethyl sulfoxide (DMSO, Sigma-Aldrich, St. Louis, MO, cat. D2650) at 400-fold the tested concentration and stored at -70 degrees C. Prior to their use, the stock solutions were diluted in fresh medium and the final DMSO concentration in the assay was 0.25% (v/v). All drugs and investigational agents were tested over a range starting from a high concentration at or near the clinical Cmax and decreasing in half-log increments. If the clinical Cmax for an agent had not been determined, the highest concentration tested was 10 microM.
Cell Lines. The patient-derived cancer cell (PDC) lines: 156681-154-R-J1-PDC, 283228-195-R-J1-PDC, 287954-098-R-J1-PDC, 292921-168-R-J2-PDC, 349418-098-R-PDC, 425362-245-T-J1-PDC, 556581-035-R-J1-PDC, and BL0293-F563-PDC were received from the NCI Patient-Derived Models Repository (PDMR, https://pdmr.cancer.gov). The established cell lines HS-SY-2 (RRID:CVCL_8719), MPNST, and SYO-1 (RRID:CVCL_7146) were obtained from the Sloan Kettering Institute. The alveolar soft parts sarcoma cell line ASPS-1 (RRID:CVCL_S738) was established at the NCI and grown from internal seed stocks. The following established cell lines were purchased from the American Type Culture Collection (ATCC, Manassas, VA): G-401 (ATCC, cat. CRL-1441, RRID:CVCL_0270), SW982 (ATCC, cat. HTB-93, RRID:CVCL_1734), VA-ES-BJ (ATCC, cat. CRL-2138, RRID:CVCL_1785), NCI-H719 (ATCC, cat. CRL-5837, RRID:CVCL_1582), NCI-H196 (ATCC, cat. CRL-5823, RRID:CVCL_1509), NCI-H841 (ATCC, cat. CRL-5845, RRID:CVCL_1595), NCI-H1618 (ATCC, cat. CRL-5879, RRID:CVCL_1480), NCI-H1876 (ATCC, cat. CRL-5902, RRID:CVCL_1503), DMS 114 (ATCC, cat. CRL-2066; RRID:CVCL_1174), NCI-H211 (ATCC, cat. CRL-5824; RRID:CVCL_1529), and SW 1271 (ATCC, cat. CRL-2177, RRID:CVCL_1716). The small cell lung cancer cell line COR-L88 was purchased from Sigma-Aldrich (cat. 92031917-1VL, RRID:CVCL_1141). The non-small cell lung cancer cell lines NCI-H226 (RRID:CVCL_1544) and NCI-H322M (RRID:CVCL_1557) were established at the NCI and grown from internal seed stocks. Pooled donor human umbilical vein endothelial cells (HUVEC, Lonza, cat. CC-2519) and human mesenchymal stem cells (hMSC, Lonza, cat. PT-2501) were purchased from Lonza (Walkersville, MD).
Cell Culture. All cells were maintained in an incubator at 37 degrees C and 5% CO2 with 95% humidity. […]

[1] = compound alone, run of 11/07/2019
[2] = compound alone, run of 12/16/2019

| Structure (SMILES) | viability, T/C (compound 0.0316 µM) | viability, T/C (compound 0.1 µM) | viability, T/C (compound 0.316 µM) | viability, T/C (compound 1 µM) | viability, T/C (compound 3.16 µM) | viability, T/C (compound 10 µM) | IC50 (curve of compound) | viability, T/C (compound 0.00949 µM) | viability, T/C (compound 0.03 µM) | viability, T/C (compound 0.0949 µM) | viability, T/C (compound 0.3 µM) | viability, T/C (compound 0.949 µM) | viability, T/C (compound 3 µM) | further results |
| --- | --- | --- | --- | --- | --- | --- | --- | --- | --- | --- | --- | --- | --- | --- |
| CC(C)n1c(=O)n(C)c2cnc3cc(F)c(-c4ccc(OCCCN5CCCCC5)nc4)cc3c21 | 95.5% and 110% and 106% | 108% (2×) and 107% | 103% and 105% and 101% | 95.2% and 106% and 100% | 93% and 98.2% and 95.5% | 63.6% and 56.2% and 38.7% | > 10000 nM and 7970 nM | – | – | – | – | – | – | – |
| CC1COCCN1c1cc(-c2ccnn2C)c2ccnc(-c3ccn[nH]3)c2n1 (configuration not stated) | 85.3% and 92.7% and 83.6% | 60.3% and 70.7% and 69.8% | 43.5% and 50.8% and 46.5% | 37.7% and 46% and 48.2% | 42.6% and 45.1% and 48% | 39.6% and 46.7% and 44.7% | 198 nM and 376 nM and 270 nM | – | – | – | – | – | – | – |
| CC[C@@]1(O)C(=O)OCc2c1cc1n(c2=O)Cc2cc3c(CN(C)C)c(O)ccc3nc2-1 | – | – | – | – | – | – | – | 103% [middle of 10 runs] | 96.3% [middle of 10 runs] | 56.3% [middle of 10 runs] | – | – | – | viability, T/C (compound 0.003 µM): 101% [middle of 10 runs]; IC50 [1]: 222 nM and 160 nM and > 300 nM; IC50 [2]: > 300 nM |
| CNCc1ccc(-c2cc(-c3nc(-c4ccc(S(=O)(=O)C(C)C)cc4)cnc3N)on2)cc1 | – | – | – | – | – | – | 545 nM and 644 nM and 783 nM | 107% and 103% and 105% | 102% and 113% and 112% | 97.4% and 108% and 96.5% | 58.1% and 74.3% and 76.5% | 40.4% and 38.1% and 45.4% | 9.11% and 6.66% and 18% | – |
| COc1cc(C)[nH]c(=O)c1CN1CCc2c(Cl)cc(C(OC)C3COC3)c(Cl)c2C1=O (configuration not stated) | 105% and 103% and 99% | 108% and 106% and 105% | 107% and 102% and 100% | 106% and 97.9% and 96.5% | 104% and 102% and 98% | 99.3% and 104% and 97.8% | > 10000 nM | – | – | – | – | – | – | – |
| COc1cc2c(cc1O)CCNC21CSC2c3c(OC(C)=O)c(C)c4c(c3C(COC1=O)N1C(O)C3Cc5cc(C)c(OC)c(O)c5C(C21)N3C)OCO4 (configuration not stated) | – | – | – | – | – | – | – | – | – | – | – | – | – | viability, T/C (compound 30 pM): 103% [middle of 10 runs]; viability, T/C (compound 94.9 pM): 103% [middle of 10 runs]; viability, T/C (compound 0.0003 µM): 92.7% [middle of 10 runs]; viability, T/C (compound 0.000949 µM): 71.9% [middle of 10 runs]; viability, T/C (compound 0.003 µM): 23% [middle of 10 runs]; IC50 [2]: 1.63 nM [middle of 10 runs] |
| COc1ccc([C@@H](O)c2cc(-c3ncnc4cc(N5CCOCC5)ccc34)c(F)cc2Cl)nn1 | 108% and 103% (2×) | 95.8% and 109% and 111% | 103% and 102% and 94.3% | 90.4% | 77.3% and 89.6% and 84.7% | 49.6% and 58.1% and 50.4% | 9890 nM and > 10000 nM | – | – | – | – | – | – | outcome (compound 1 µM): inactive |
| Cc1cc(C)c(CNC(=O)c2cc(-c3ccc(CN4CCOCC4)cc3)cc3c2cnn3C2CCCC2)c(=O)[nH]1 | 103% and 100% and 101% | 103% (2×) and 102% | 103% and 92.5% and 99.4% | 105% and 93.1% and 101% | 96.7% and 94.2% and 93.3% | 79.3% and 80.4% and 80.8% | > 10000 nM | – | – | – | – | – | – | – |
| Cc1sc2c(c1C)C(c1ccc(Cl)cc1)=NC(CC(=O)Nc1ccc(O)cc1)c1nnc(C)n1-2 (configuration not stated) | – | – | – | – | – | – | > 3000 nM | 102% and 110% and 107% | 103% and 111% and 108% | 103% and 111% and 109% | 108% and 105% and 100% | 97.8% and 101% and 94.3% | 90.6% and 87.9% and 83.7% | – |
| Cn1ncnc1[C@H]1c2n[nH]c(=O)c3cc(F)cc(c23)N[C@@H]1c1ccc(F)cc1 | – | – | – | – | – | – | > 3000 nM | 96.5% and 101% | 105% (2×) and 98.6% | 102% (2×) and 96.3% | 102% and 95.5% and 98.4% | 101% and 97.7% and 91.2% | 88.4% and 86% and 72.1% | outcome (compound 0.00949 µM): inactive |
| Cn1nnc2c(C(N)=O)ncn2c1=O | – | – | – | 98.1% [middle of 10 runs] | 103% [middle of 10 runs] | 92% [middle of 10 runs] | – | – | – | – | – | – | – | viability, T/C (compound 31.6 µM): 81% [middle of 10 runs]; viability, T/C (compound 100 µM): 70.1% [middle of 10 runs]; IC50 [1]: > 100000 nM |
| O=C(c1cc(Cc2n[nH]c(=O)c3ccccc23)ccc1F)N1CCN(C(=O)C2CC2)CC1 | – | – | – | – | – | – | > 30000 nM | – | – | 97.9% and 107% and 106% | 95% and 115% and 111% | 95.6% and 107% and 108% | 101% and 108% and 102% | viability, T/C (compound 9.49 µM): 101% and 111% and 103%; viability, T/C (compound 30 µM): 89.2% and 97.1% and 60.3% |
| [2H]c1nc(C)nc([2H])c1-c1cc(NC[C@@H](C)c2cccc3c(C(=O)NC)ccnc23)ncn1 | 107% and 101% and 102% | 108% and 104% | 108% and 104% | 106% and 113% and 95.1% | 103% and 107% and 100% | 97.9% and 101% and 95.2% | > 10000 nM | – | – | – | – | – | – | outcome (compound 0.1 µM): inactive; outcome (compound 0.316 µM): inactive |
